Measured values taken from patent publication US9157088B2, “Transferases, epimerases, polynucleotides encoding these and uses thereof” (priority 2007, dated 2015).
One block for each molecule: values may come before it.

Experiments:
[1] = system: L-Galactose dehydrogenase; details: cited from earlier work
[2] = biological target: T1, L-Galactose-1-Phosphate phosphatase (Arabidopsis thaliana, UniProt Q9M8S8); details: cited from earlier work
T1 construct: made in house; host or cells: E. coli
T1 sequence (Q9M8S8 1-271): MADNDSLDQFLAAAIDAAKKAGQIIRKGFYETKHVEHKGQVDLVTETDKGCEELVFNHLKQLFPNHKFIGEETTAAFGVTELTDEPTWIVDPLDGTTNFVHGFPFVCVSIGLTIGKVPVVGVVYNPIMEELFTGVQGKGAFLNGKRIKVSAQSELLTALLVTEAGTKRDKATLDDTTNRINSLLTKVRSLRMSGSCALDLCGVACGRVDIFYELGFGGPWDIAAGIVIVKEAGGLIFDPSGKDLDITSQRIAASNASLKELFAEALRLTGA

[3] = biological target: kiwifruit GDP-L-Galactose Guanyltransferase EST 319998 (Actinidia chinensis, UniProt A0A2R6QD99); test: Continuous coupled assay of transferase activity with guanyl acceptors; details: sugar phosphate as guanyl acceptor, epimerase generated substrate
Experimental: (§1) Expression of genes in E. coli. The EST 319998 from young fruit of Actinidia chinensis and At4g26850 were each cloned into pET30A (Novagene, USA), their sequence checked and expressed in E. coli. The N terminal His6 tag was used to purify the protein. An empty vector control was expressed and purified in parallel. Techniques were essentially as described earlier (Laing et al., 2004).
L-Galactose dehydrogenase (Gen Bank accession AA018639 (EST 56121), 1.5 ug/assay) was cloned from an EST derived from an A. deliciosa (kiwifruit) shoot bud library with a maltose binding protein presequence and assayed as described previously (Laing et al., 2004). L-Galactose-1-Phosphate phosphatase was cloned from Arabidopsis thaliana (At3g02870, 3.1 ug/assay) and assayed as described (Laing et al., 2004). GDP-D-Mannose 3′,5′-Epimerase (198296) was cloned from dormant kiwifruit (A. deliciosa) buds three days after hydrogen cyanamide treatment and assayed as described (Wolucka et al., 2001). The former two enzymes are highly specific as to their substrates (Laing et al., 2004; Laing et al., 2004).
The assay for GDP-L-Galactose-1-Phosphate Guanyltransferase was run in 20 mM TrisCl, pH 8.0, GDP-L-Galactose, with 1 mM D-Mannose-1-Phosphate. […] In the latter case, 0.21 mg of epimerase was incubated with GDP-D-Mannose in 20 mM Tris Cl pH 8 in a total volume of 400 μL (see Wolucka et al., 2001) for 30 minutes at 20 C and then used directly in the assay at a 1 to 20 dilution. Assays were either terminated after 10 minutes by heating to 100 C for three minutes, or directly coupled to the phosphatase and L-Galactose dehydrogenase to measure product formation during the assay. Heat terminated assays were cooled on ice, centrifuged to remove precipitated protein and L-Galactose assayed using the coupling enzymes described above (see also (Laing et al., 2004)).
The applicants used two assays to characterise the enzyme, using two sources of the substrate GDP-L-Galactose. The first assay used the E. coli expressed coupling enzymes L-Galactose-1-Phosphate phosphatase and L-Galactose dehydrogenase. […] The applicants either measured the product formed by adding the coupling enzymes in the assay and measuring the time course of NADH formed, or by stopping the reaction after 10 minutes by boiling for 3 minutes and centrifuging. To this latter fixed time assay, the applicants then either adding coupling enzymes to measure L-Galactose production or using the LCMS to measure the products. The LCMS was used only to confirm the results of the coupled enzyme reaction and to measure the reverse reaction.

[4] = Transferase activity of E. coli expressed enzymes (coupled reaction and LCMS); assay type: biochemical; details: enzyme expressed in E. coli, His tag purified
Experimental: as §1, with “2004). In much of this work the His-protein was further purified on a 5 mL HiTrap Q FF column (GE Healthcare), and identical results were obtained with both preparations.” for “2004).”
The assay for GDP-L-Galactose-1-Phosphate Guanyltransferase was run in 20 mM TrisCl, pH 8.0, GDP-L-Galactose, with 1 mM D-Mannose-1-Phosphate. GDP-L-Galactose was either used directly from the Glycoteam product (in which case high backgrounds were observed due to contaminating L-Galactose-1-Phosphate) or GDP-L-Galactose was generated using the epimerase. In the latter case, 0.21 mg of epimerase was incubated with GDP-D-Mannose in 20 mM Tris Cl pH 8 in a total volume of 400 μL (see Wolucka et al., 2001) for 30 minutes at 20 C and then used directly in the assay at a 1 to 20 dilution. Assays were either terminated after 10 minutes by heating to 100 C for three minutes, or directly coupled to the phosphatase and L-Galactose dehydrogenase to measure product formation during the assay. Heat terminated assays were cooled on ice, centrifuged to remove precipitated protein and L-Galactose assayed using the coupling enzymes described above (see also (Laing et al., 2004)). Assays for L-Galactose were linear with added L-Galactose-1-Phosphate over the range measured. Backgrounds were run using the empty vector control, which gave the same result as a boiled enzyme control. […]
The applicants used two assays to characterise the enzyme, using two sources of the substrate GDP-L-Galactose. […] The applicants either measured the product formed by adding the coupling enzymes in the assay and measuring the time course of NADH formed, or by stopping the reaction after 10 minutes by boiling for 3 minutes and centrifuging. […]

Sequence of kiwifruit GDP-L-Galactose Guanyltransferase EST 319998 (A0A2R6QD99 entry or part of it): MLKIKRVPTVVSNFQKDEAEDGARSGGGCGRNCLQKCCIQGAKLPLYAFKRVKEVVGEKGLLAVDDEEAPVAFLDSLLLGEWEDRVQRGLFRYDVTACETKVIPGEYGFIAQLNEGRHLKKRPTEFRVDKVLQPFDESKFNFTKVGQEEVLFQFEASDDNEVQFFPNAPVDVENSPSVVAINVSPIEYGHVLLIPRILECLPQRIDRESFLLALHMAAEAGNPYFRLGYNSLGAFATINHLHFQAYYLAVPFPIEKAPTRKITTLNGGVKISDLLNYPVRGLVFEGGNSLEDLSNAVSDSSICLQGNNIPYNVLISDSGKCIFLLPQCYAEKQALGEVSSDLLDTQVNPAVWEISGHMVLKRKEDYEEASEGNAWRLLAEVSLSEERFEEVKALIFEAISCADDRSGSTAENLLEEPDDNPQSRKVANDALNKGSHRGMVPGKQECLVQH

Molecule: O=C[C@H](O)[C@@H](O)[C@@H](O)[C@H](O)CO [D-Galactose]
reaction with L-Galactose dehydrogenase [1]: not reacting

Molecule: O=C[C@@H](O)[C@@H](O)[C@H](O)[C@H](O)CO [D-Mannose]
reaction with L-Galactose dehydrogenase [1]: not reacting

% of D-mannose-1P [3]: 126%
Rate ([3]; N = 6): 0.42 nmoles/sec/ug protein
Molecule: O=P(O)(O)OC1[C@@H](O)[C@H](O)C(O)[C@H](O)[C@@H]1O (stereo partly drawn) [L-Myoinositol-1-P]
dephosphorylation by L-Galactose-1-Phosphate phosphatase [2]: significantly dephosphorylating

B1: At4g26850: GDP-L-Galactose Guanyltransferase, VTC2 from Arabidopsis thaliana (protein, listed as Arabidopsis thaliana)
chain: MLKIKRVPTVVSNYQKDDGAEDPVGCGRNCLGACCLNGARLPLYACKNLVKSGEKLVISHEAIEPPVAFLESLVLGEWEDRFQRGLFRYDVTACETKVIPGKYGFVAQLNEGRHLKKRPTEFRVDKVLQSFDGSKFNFTKVGQEELLFQFEAGEDAQVQFFPCMPIDPENSPSVVAINVSPIEYGHVLLIPRVLDCLPQRIDHKSLLLAVHMAAEAANPYFRLGYNSLGAFATINHLHFQAYYLAMPFPLEKAPTKKITTTVSGVKISELLSYPVRSLLFEGGSSMQELSDTVSDCCVCLQNNNIPFNILISDCGRQIFLMPQCYAEKQALGEVSPEVLETQVNPAVWEISGHMVLKRKEDYEGASEDNAWRLLAEASLSEERFKEVTALAFEAIGCSNQEEDLEGTIVHQQNSSGNVNQKSNRTHGGPITNGTAAECLVLQ
GDP-L-Galactose Guanyltransferase activity of the expressed enzyme [4]: showed transferase activity
GDP-L-Galactose Guanyltransferase activity of the expressed enzyme ([4]; listed as At4g26): could catalyse the conversion of GDP-L-Galactose to L-Galactose-1-P
